Measured values taken from patent US20100273656A1, “COMPOSITION AND METHOD FOR SELECTIVE HERBICIDE” (priority 2002, published 2010).
Like-named read-outs stand apart in the source and are kept apart here.

Columns and labels:
[1] = tested on: dandelions; assay: Example 1 field test of iron chelates, dandelion damage; format: in vivo, Taraxacum officinale; settings: sprayed once at 100 ml/m^2, 5 days after spraying
Method: (§1) The following non-limiting examples serve to further describe the invention. Unless otherwise specified, all of the iron solutions were made using the same molar concentration of iron ion as chelating agent. All of the outside tests were done on areas of mixed grass and dandelions that were at least 2 months old. For the greenhouse tests, dandelions were grown in a commercial greenhouse mix, using supplemental lighting and heating. Each plant was grown in a 2¼ inch pot to a minimum diameter of 20 cm. All of the solutions were sprayed onto the plants at a rate of 100 ml/m^2. The ferrous sulfate formulations that were used in examples 1, 2, 8 and 9 contained 1% iron (180 mM), 18 mM EDTA, 1% citric acid and 0.5% urea. In all of the examples, the amount of iron is identified in brackets as the percent iron on a weight basis.
(§2) All plant damage was assessed using a qualitative rating scale from 0 to 9.
(§3) All of the iron chelates were sprayed once at 0.2% Fe^+3 (35.8 mM), at a volume of 100 ml/m^2 onto 0.5 m^2 areas of mixed grass and dandelions. The spraying of the test was followed by 2 days of rain-free weather. Observations were made 5 days after spraying.

[2] = tested on: grass; assay: Example 1 field test of iron chelates, grass damage; format: in vivo; settings: field, sprayed once at 100 ml/m^2, 5 days after spraying
Method: as §1, §2, §3

[3] = tested on: daisy plants (Bellis perennis BELPE); assay: Example 8 field daisy test of iron solutions; format: in vivo; settings: 0.5 L/m^2, 6 days after spraying
Method: as §1

[4] = tested on: grass; assay: Example 2 field test of FeEDDS and FeHEDTA at pH 3 and 7, grass; format: in vivo; settings: solution pH 2.6-3.0; field, 0.1 L/m^2, 4 days after spraying
Method: as §1, §2
(§4) The FeEDDS and FeHEDTA solutions contained 0.2% Fe^+3 (35.8 mM). The ferrous sulfate contained 1% Fe^+2 (179.1 mM). The solutions were sprayed at a rate of 0.1 L/m^2 onto 2 plots of 0.5 m^2 of mixed grass and dandelions. Observations were made 4 days after spraying.

[5] = tested on: grass; assay: Example 9 lawn restoration, grass coverage and damage; format: in vivo; settings: after 18 days, sprayed twice
Method: (§5) Na4EDTA was added to the ferrous sulfate solution at 1.5% (36 mM). The molar level of EDTA is 1/10 that of the iron ions. […] The urea is added as a nitrogen fertilizer source to encourage the growth of the grasses.

[6] = tested on: turf grasses; settings: for Plant Death (%) Grass: 3 days after second spray; for Plant Damage (0 to 9) Grass: 3 days after second spray (re-sprayed after 9 days)
Method: as §1, §2
(§6) This test investigated the effect of 10% chelation and pH on potted grass and dandelions. All of the solutions contained 10% ferrous sulfate heptahydrate, resulting in a Fe^+2 concentration of 2% (358.1 mM). EDTA and EDDS were added at 1/10th of the iron molar concentration (35.8 mM). MH was added 1%. The dandelions and turf grasses were sow in separate pots 3 weeks prior to the start of the test.
(§7) The plants were re-sprayed after 9 days.

[7] = tested on: dandelions; assay: Example 3 FeSO4, EDTA, EDDS and MH combinations on potted dandelions; format: in vivo, Taraxacum officinale; settings: for Plant Death (%) Dandelion: 3 days after second spray; for Plant Damage (0 to 9) Dandelion: 3 days after second spray (re-sprayed after 9 days)
Method: as §1, §2, §6, §7

[8] = tested on: dandelions (Taraxacum officinale); assay: Example 9 lawn restoration, dandelion coverage; format: in vivo
Method: as §5

[9] = tested on: dandelions; assay: Example 2 field test of FeEDDS and FeHEDTA at pH 3 and 7, dandelion; format: in vivo, Taraxacum officinale; settings: solution pH 2.6-3.0, 0.1 L/m^2, 4 days after spraying
Method: as §1, §2, §4

[10] = tested on: dandelions; assay: Example 7 potassium nonanoate with FeHEDTA, greenhouse dandelions; format: in vivo, Taraxacum officinale; settings: for Dead Plants (#/10): 8 + 5 days after spraying
Method: as §1, §2
This test compared the damaged caused by combinations of fatty acid and FeHEDTA. FeHEDTA was used at a concentration to 35.8 mM. The treatment with 0.1% Fe contained twice the molar amount of chelating agent as iron. The treatment with 0.2% iron contained the same molar amount of chelating agent as iron Potassium nonanoate (KC9) was used at 0.84%. The plants were re-sprayed 8 days after the first spray.

[11] = tested on: dock (Rumex crispus); assay: Example 9 lawn restoration, dock coverage; format: in vivo; settings: after 18 days, sprayed twice
Method: as §5

`O=S(=O)([O-])[O-].[Fe+2]` [FeSO4, ferrous sulfate] was tested, and the “Dandelion Damage (0 to 9)” value [1] was 6.3 0 to 9, the “Grass Damage (0 to 9)” value [2] was 7 and the “Daisy Mortality (%)” value [3] was 6%. The “Grass Damage (0 to 9)” value [4] was 7.0 0 to 9, the “Grass Damage (0 to 9)” value [5] was 1 and the “Plot Area Covered (%) By: Grass” value [5] was 20%. The “Plant Death (%) Grass” value ([6]; pH 3) was 0%, the “Plant Damage (0 to 9) Grass” value ([6]; pH 3) was 4 and the “Plant Death (%) Grass” value ([6]; pH 6) was 0%. For the same molecule, the “Plant Damage (0 to 9) Grass” value ([6]; pH 6) was 0, the “Plant Death (%) Dandelion” value ([7]; pH 3) was 76% and the “Plant Damage (0 to 9) Dandelion” value ([7]; pH 3) was 8.2 0 to 9. For the same molecule, the “Plant Death (%) Dandelion” value ([7]; pH 6) was 17%, the “Plant Damage (0 to 9) Dandelion” value ([7]; pH 6) was 6.0 0 to 9 and the “effect on dandelion (and dock) in the plots, in words” value ([8]; Example 9, text) was “did not appear to reduce the area covered by dandelions”. The “Plot Area Covered (%) By: Dandelion” value ([8]; after 18 days, sprayed twice) was 65%, the “Dandelion Damage (0 to 9)” value [9] was 7.0 0 to 9 and the “Plant Damage (0 to 9)” value ([10]; 8 + 5 days after spraying (re-sprayed after 8 days), listed as FeSO4 (0.2% Fe^+2)) was 0.2 0 to 9. For the same molecule, the “Plant Damage (0 to 9)” value ([10]; 8 + 5 days after spraying (re-sprayed after 8 days), listed as FeSO4 (1% Fe^+2)) was 7.2 0 to 9, the “Plant Damage (0 to 9)” value ([10]; 8 + 5 days after spraying (re-sprayed after 8 days), listed as FeSO4 (2% Fe^+2)) was 8.4 0 to 9 and the “Dead Plants (#/10)” value ([10]; listed as FeSO4 (0.2% Fe^+2)) was 0 #/10. The “Dead Plants (#/10)” value ([10]; listed as FeSO4 (1% Fe^+2)) was 5 #/10, the “Dead Plants (#/10)” value ([10]; listed as FeSO4 (2% Fe^+2)) was 8 #/10 and the “Plant Damage (0 to 9)” value ([10]; 7 days after spraying, listed as FeSO4 (0.2% Fe^+2)) was 0.8 0 to 9. For the same molecule, the “Plant Damage (0 to 9)” value ([10]; 7 days after spraying, listed as FeSO4 (1% Fe^+2)) was 4.4 0 to 9, the “Plant Damage (0 to 9)” value ([10]; 7 days after spraying, listed as FeSO4 (2% Fe^+2)) was 6.2 0 to 9 and the “Plot Area Covered (%) By: Dock” value [11] was 14%.
